In PubChem BioAssay (NCI):
Several values for one entry are separate records, joined by “and”; a condition that tells them apart may be missing. Identical values can stand only once.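 The compound was tested at five concentrations on cells cultured in 96-well plates, with a 48-hour exposure period. At the GI50, growth is halved. The concentration for full growth arrest is given as TGI.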

Experiments:
Test in all cases: NCI tumour cell line growth inhibition, 48 h
A549 NSCLC = system: A549 NSCLC
HOP-62 NSCLC = system: HOP-62 NSCLC
IGROV1 ovarian = system: IGROV1 ovarian
MOLT-4 leukemia = system: MOLT-4 leukemia
OVCAR-4 ovarian = system: OVCAR-4 ovarian
SF-539 CNS = system: SF-539 CNS
SK-OV-3 ovarian = system: SK-OV-3 ovarian
SN12C renal = system: SN12C renal
SNB-19 CNS = system: SNB-19 CNS
UACC-257 melanoma = system: UACC-257 melanoma

Row | Compound | GI50 (A549 NSCLC) [µM] | TGI (A549 NSCLC) | GI50 (HOP-62 NSCLC) [µM] | TGI (HOP-62 NSCLC) | GI50 (IGROV1 ovarian) [µM] | TGI (IGROV1 ovarian) | GI50 (MOLT-4 leukemia) [µM] | TGI (MOLT-4 leukemia) [µM] | GI50 (OVCAR-4 ovarian) [µM] | TGI (OVCAR-4 ovarian) | GI50 (SF-539 CNS) [µM] | TGI (SF-539 CNS) | GI50 (SK-OV-3 ovarian) [µM] | TGI (SK-OV-3 ovarian) | GI50 (SN12C renal) [µM] | TGI (SN12C renal) | GI50 (SNB-19 CNS) [µM] | TGI (SNB-19 CNS) | GI50 (UACC-257 melanoma) [µM] | TGI (UACC-257 melanoma)
1 | COc1ccc2c(c1)c(CC(=O)[Se]C)c(C)n2C(=O)c1ccc(Cl)cc1 | > 0.283 | > 0.603 µM | > 0.306 | > 0.615 µM | > 0.199 | > 0.615 µM | > 0.335 | > 1 | > 0.443 | > 1 µM | > 0.238 | > 0.526 µM | > 0.658 | 0.989 µM | > 0.49 | > 1 µM | > 0.421 | > 0.752 µM | > 0.352 | > 0.689 µM
2 | CC1=C(C(=O)Nc2ccc3n[nH]c(C)c3c2)C(c2ccc(C(F)(F)F)cc2)CC(=O)N1 (configuration not stated) | 18.5 | > 25 µM | 4.4 | > 25 µM | 10.3 | > 25 µM | 16.4 | > 25 | 16 | > 25 µM | 7.12 | > 25 µM | 24.2 | > 25 µM | > 25 | > 25 µM | > 25 | > 25 µM | > 25 | > 25 µM
3 | COc1cc2ccnc3c2c(c1OC)-c1coc(SC)c1-3 | – | > 100 µM | – | > 100 µM | – | > 100 µM | – | > 100 | – | > 100 µM | – | > 100 µM | – | > 100 µM | – | > 100 µM | – | > 100 µM | – | > 100 µM
4 | c1cncc(C2N3CCCCC3[C@@H]3c4[nH]c5ccccc5c4CCN23)c1 (some centres not stated) | – | > 100 µM | – | > 100 µM | – | > 100 µM | – | > 100 | – | > 100 µM | – | > 100 µM | – | > 100 µM | – | > 100 µM | – | > 100 µM | – | > 100 µM
5 | Nc1ncnc2c1N=C(c1ccc3c(c1)OCO3)CC(c1ccc([N+](=O)[O-])cc1)N2 (configuration not stated) | 69.7 | > 100 µM | 67.6 | > 100 µM | 0.0684 | 3.24 µM | 23.7 | > 100 | > 100 | > 100 µM | > 100 | > 100 µM | > 100 | > 100 µM | 82.6 | > 100 µM | 84.9 | > 100 µM | > 100 | > 100 µM
6 | CN1CCN(C(=O)C(C)(C)c2ccc(C(=O)Nc3cn4cc(-c5ccncc5)ccc4n3)cc2)CC1 | 0.214 | > 100 µM | 0.307 | > 53 µM | 0.22 | 6 µM | 0.319 | > 46.7 | 0.35 | > 100 µM | 0.246 | 1.17 µM | 0.275 | 17.5 µM | 0.267 | > 100 µM | 0.239 | > 100 µM | 0.296 | 15.1 µM
7 | COc1ccc(CCN2CC=Cn3c2nc2ccccc2c3=O)cc1 | 0.038 | > 49.1 µM | 0.0346 | > 64 µM | 0.0509 | > 50.3 µM | 0.0523 | > 100 | 0.0637 | > 96 µM | 0.0209 | 0.0627 µM | 0.0559 | > 89.7 µM | 0.116 | > 61.1 µM | 0.0614 | > 100 µM | 20.5 | > 100 µM
8 | COc1cc2nc(N3CCCC3)nc(NCc3ccccc3)c2cc1OC | 4.1 | 16.3 µM | 12.3 | 26.9 µM | 3.66 | 16.2 µM | 2.89 | 9.1 | 2.95 | 11.3 µM | 1.71 | 3.12 µM | 14 | 27.4 µM | 8.09 | 21.7 µM | 5.05 | 17.7 µM | 1.96 | 4.04 µM
9 | CC1=NN(C(=O)c2ccccc2O)C(=O)/C1=C/c1ccc(O)cc1 | – | > 100 µM | – | > 100 µM | – | 5.03 µM | – | > 100 | – | > 100 µM | – | 6.73 µM | – | > 100 µM | – | > 78.7 µM | – | > 100 µM | – | > 100 µM
10 | C=CCN=C(N/N=C/c1ccc([N+](=O)[O-])o1)NS(=O)(=O)c1cc(C(=O)Nc2ccc(Cl)cc2)c(Cl)cc1SC | > 37.3 | > 100 µM | 1.8 | 7.32 µM | > 69.9 | > 100 µM | – | > 39.5 | – | > 34.1 µM | 5.92 | > 100 µM | > 100 | > 100 µM | 2.63 | > 100 µM | > 100 | > 100 µM | 4.28 | > 59.9 µM
11 | C[C@H]1CC[C@@]2(NC1)O[C@H]1C[C@H]3[C@@H]4CC[C@H]5C[C@@H](O)CC[C@]5(C)[C@H]4CC[C@]3(C)[C@H]1[C@@H]2C | 19.6 | 50 µM and > 100 µM | 9.72 | 19.4 µM and > 100 µM | 12.3 | 24.5 µM and > 100 µM | > 50 | > 100 | 17.3 | 50 µM and > 100 µM | 13.8 | 32.2 µM and > 100 µM | 22.7 | 50 µM and > 100 µM | 11.2 | 29.9 µM and > 100 µM | – | 50 µM and > 100 µM | 22 | 50 µM and > 100 µM
12 | Cc1c(C(=O)Nc2ccccc2)sc2ncn(Cc3cccc(Cl)c3)c(=O)c12 | 29.6 | 93.1 µM | 18.3 | 45.8 µM | 15.6 | > 100 µM | 51.8 | > 100 | 27.8 | > 100 µM | 22.4 | > 100 µM | > 100 | > 100 µM | 20 | 85.1 µM | 30.1 | > 100 µM | 34.4 | > 100 µM
13 | C[C@@]12CCC(=O)c3coc(c31)C(=O)c1cc3c(cc12)C(=O)C=CC3=O | > 1 | > 100 µM | > 1 | > 100 µM | > 1 | > 1 µM and 59.3 µM | > 1 | > 100 | > 1 | > 1 µM and 32.1 µM | < 1 | > 1 µM and 31.7 µM | > 1 | > 100 µM | > 1 | > 1 µM and 30.7 µM | > 1 | > 100 µM | > 1 | > 1 µM and 23.8 µM
14 | CCOc1cc2c(C(=O)CC)c(O)ccc2o1 | – | > 100 µM | – | > 100 µM | – | > 100 µM | – | > 100 | – | > 56.8 µM | – | > 100 µM | – | > 93.6 µM | – | > 100 µM | – | > 100 µM | – | > 100 µM
